Measurements reported in patent US20230183239A1, “ECTONUCLEOTIDE PYROPHOSPHATASE-PHOSPHODIESTERASE 1 (ENPP-1) INHIBITORS AND USES THEREOF” (AbbVie Inc., priority 2017, published 2023).

Legend:
Type in all cases: biochemical
ENPP1 [1] = target: T1, ENPP1 (Homo sapiens, UniProt P22413); test: ENPP1 enzyme assay with AMP-pNP substrate (hydrolysis of ATP analog); details: AMP-pNP substrate (ATP analog); Ki from IC50 by Cheng-Prusoff; read-out: ENPP1 Inhibition _AMP-pNP: Ki
T1 sequence (P22413 1-925): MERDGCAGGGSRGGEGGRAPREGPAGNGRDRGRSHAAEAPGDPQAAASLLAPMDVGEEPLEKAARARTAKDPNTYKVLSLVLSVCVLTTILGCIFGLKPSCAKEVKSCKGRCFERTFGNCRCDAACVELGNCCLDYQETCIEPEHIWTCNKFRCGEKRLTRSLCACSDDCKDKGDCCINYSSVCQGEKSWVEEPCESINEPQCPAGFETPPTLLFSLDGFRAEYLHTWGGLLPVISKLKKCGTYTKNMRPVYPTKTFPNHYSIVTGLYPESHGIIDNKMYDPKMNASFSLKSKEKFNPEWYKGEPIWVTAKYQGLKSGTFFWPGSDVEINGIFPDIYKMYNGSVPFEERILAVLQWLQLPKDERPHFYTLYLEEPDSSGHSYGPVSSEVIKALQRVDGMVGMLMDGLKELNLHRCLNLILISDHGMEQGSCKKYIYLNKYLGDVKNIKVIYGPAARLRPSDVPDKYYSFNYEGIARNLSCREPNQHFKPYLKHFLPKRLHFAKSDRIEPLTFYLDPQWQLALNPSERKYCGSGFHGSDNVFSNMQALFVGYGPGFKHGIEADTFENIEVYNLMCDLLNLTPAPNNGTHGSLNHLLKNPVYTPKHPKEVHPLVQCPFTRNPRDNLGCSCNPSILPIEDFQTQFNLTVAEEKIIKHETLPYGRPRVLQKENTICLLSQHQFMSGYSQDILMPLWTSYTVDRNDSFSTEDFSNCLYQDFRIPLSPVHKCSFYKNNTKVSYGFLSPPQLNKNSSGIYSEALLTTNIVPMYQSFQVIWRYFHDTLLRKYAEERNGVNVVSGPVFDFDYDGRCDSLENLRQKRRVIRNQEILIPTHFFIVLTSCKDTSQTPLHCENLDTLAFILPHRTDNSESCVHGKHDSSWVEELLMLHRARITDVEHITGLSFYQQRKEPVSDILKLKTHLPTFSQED
How it was run: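 Human recombinant ENPP1 (60 ng/well) with 300 µM AMP-pNP in 50 mM Tris-HCl pH 8.5, 250 mM NaCl, 0.5 mM CaCl2, 1 µM ZnCl2, 0.1% DMSO, 20 min at 37 °C.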

ENPP1 [2] = target: T1, ENPP1; test: Indirect quantitation of 2',3'-cGAMP hydrolysis (AMP-Glo Assay kit); details: cGAMP substrate; Ki from IC50 by Cheng-Prusoff; read-out: ENPP1 Inhibition -cGAMP: Ki
ENPP1 [3] = target: T1, ENPP1; test: Substrate selectivity ratio, inhibition of cGAMP hydrolysis versus ATP hydrolysis; details: ratio Ki AMP-pNP / Ki cGAMP
Experimental: The selectivity ratios for inhibition of cGAMP hydrolysis versus ATP hydrolysis were then calculated as follows: […]

| SMILES | Ki (ENPP1 [1]) | Ki (ENPP1 [2]) | Substrate Selectivity: Ki_AMP-pNP/Ki_cGAMP (ENPP1 [3]) |
| --- | --- | --- | --- |
| COc1ccc2c(NCc3ccc(NS(N)(=O)=O)cc3)ccnc2n1 [Example 417, N-(4-(((7-methoxy-1,8-naphthyridin-4-yl)amino)methyl)phenyl)sulfamide] | < 100 nM | < 100 nM | 30 |
| NS(=O)(=O)N1CCC2(CCN(c3ncnc4ccc(F)cc34)CC2)C1 [Example 288, 8-(6-fluoroquinazolin-4-yl)-2,8-diazaspiro[4.5]decane-2-sulfonamide] | 100 to 1000 nM | < 100 nM | 27.9 |
| COc1cc2ncc(C#N)c(Nc3ccc(NS(N)(=O)=O)cc3)c2cc1OC [Example 175, N-(4-((3-cyano-6,7-dimethoxyquinolin-4-yl)amino)phenyl)sulfamide] | > 1000 nM | < 100 nM | >63.3 |
| COc1ccc2c(Oc3ccc(NS(N)(=O)=O)c(C)c3)ccnc2c1 [Example 308, N-(4-((7-methoxyquinolin-4-yl)oxy)-2-methylphenyl)sulfamide] | 100 to 1000 nM | < 100 nM | 28.4 |
| COc1cc2nccc(N3CCC(CCNS(=O)(=O)N4CCOCC4)CC3)c2cc1OC [Example 147, N-(2-(1-(6,7-dimethoxyquinolin-4-yl)piperidin-4-yl)ethyl)morpholine-4-sulfonamide] | > 1000 nM | 100 to 1000 nM | >117 |
| COc1ccc2c(Oc3ccc(NS(=O)(=O)NN)cc3)ccnc2c1 [Example 362, N-(4-((7-methoxyquinolin-4-yl)oxy)phenyl)hydrazinesulfonamide] | > 1000 nM | 100 to 1000 nM | >216 |
| NS(=O)(=O)NCc1ccc(-c2ccnc3cc(F)ccc23)cc1 [Example 296, N-(4-(7-fluoroquinolin-4-yl)benzyl)sulfamide] | > 1000 nM | < 100 nM | > 40.3 |
| COc1cc2nccc(Oc3ccc4c(c3)CNS(=O)(=O)N4)c2cc1OC [Example 263, 6-((6,7-dimethoxyquinolin-4-yl)oxy)-3,4-dihydro-1H-benzo[c][1,2,6]thiadiazine 2,2-dioxide] | > 1000 nM | 100 to 1000 nM | >61.9 |
| COc1ccc2c(-c3ccc(CCNS(N)(=O)=O)cc3)ccnc2c1 [Example 403, N-(4-(7-methoxyquinolin-4-yl)phenethyl)sulfamide] | > 1000 nM | 100 to 1000 nM | >227 |
| COc1cc2nccc(-c3ccc(CNS(N)(=O)=O)cc3)c2cc1OC [Example 225, N-(4-(6,7-dimethoxyquinolin-4-yl)benzyl)sulfamide] | < 100 nM | < 100 nM | 48.4 |
| COc1cc2nccc(OCc3ccc(NS(N)(=O)=O)cc3)c2cc1OC [Example 191, N-(4-(((6,7-dimethoxyquinolin-4-yl)oxy)methyl)phenyl) sulfamide] | > 1000 nM | 100 to 1000 nM | > 25.0 |
| COc1cc2ncnc(N3CCC(CCNS(N)(=O)=O)CC3)c2cc1F [Example 206, N-(2-(1-(6-fluoro-7-methoxyquinazolin-4-yl)piperidin-4-yl)ethyl)sulfamide] | 100 to 1000 nM | < 100 nM | 39.6 |
| COc1ccc2c(Oc3ccc4c(c3)CCN4S(N)(=O)=O)ccnc2c1 [Example 404, 5-((7-methoxyquinolin-4-yl)oxy)indoline-1-sulfonamide] | 100 to 1000 nM | < 100 nM | >103 |
| COc1cc2nccc(N3CCC(CCNS(=O)(=O)NC(C)=O)CC3)c2cc1OC [Example 203, N-(N-(2-(1-(6,7-dimethoxyquinolin-4-yl)piperidin-4-yl)ethyl)sulfamoyl)acetamide] | > 1000 nM | 100 to 1000 nM | > 33.7 |
| COc1ccc2c(Oc3ccc(N)cc3)ccnc2c1 [Example 342, 4-((7-methoxyquinolin-4-yl)oxy)aniline] | > 1000 nM | 100 to 1000 nM | >64.9 |
